Measured values taken from patent US9518300B2, “Composition and method for treating a hematological malignancy” (Dana-Farber Cancer Institute, Inc., priority 2014, dated 2016).

Tests used:
BCL9 [1] = assay: BCL9 and Wnt target gene expression after ectopic miR-30 expression (Q-RT-PCR, immunoblot, IF); type: cell-based, human; conditions: H929 cells
Description: We next investigated whether BCL9 mRNA expression is regulated by miR-30s in MM cells using both gain- and loss-of function studies. For gain-of-function studies we used H929 cells that express the lowest levels of miR-30s among the MM cell lines examined (FIG. 1C).
We first induced ectopic expression of individual V-miR-30s family members in H929 cells using lentiviral infection. After flow sorting of GFP positive cells, levels of miR-30s were verified by Q-RT-PCR (FIG. 3A) and then used in subsequent experiments.

BCL9 [2] = assay: Transient transfection of mature miR-30c, BCL9 immunoblot in RPMI8226 cells; type: cell-based, human; conditions: increasing amounts of mature miR-30c, 72 hours, control cel-miR-67
Protocol: To exclude the possibility that the observed changes in BCL9 expression may be due to non specific and/or secondary effects of stable transfection of V-miR-30c, we also performed transient transfection with increasing amounts of mature miR-30c into RPMI8226 cells, using cel-miR-67 as a control (FIG. 3F).
To confirm transfection efficiency, cells were collected 72 hours after transfection, and miR-30c expression levels were checked by Q-RT-PCR (FIG. 3F, top). We found an inverse association between downregulation of BCL9 protein expression and increasing amounts of transfected mature miR-30c (FIG. 3F, bottom).

BCL9 [3] = assay: Transfection of patient CD138+ primary cells, IF of BCL9, CD44, Axin2; type: cell-based, human; conditions: CD138+ primary cells (n=3), 40 pmol, control cel-miR-67
Description: (§1) In order to verify miR-30's potential for therapy in MM patients, CD138+ primary cells (n=3) were transfected with 40 pmol of mature miR-30c or same amount of cel-miR-67 as control.

CD138+ primary cells = assay: Proliferation of patient CD138+ primary MM cells, [3H] thymidine uptake; type: cell-based, human; conditions: 40 pmol
Protocol: Cell proliferation was assessed by [^3H] thymidine uptake as described (1). For apoptosis, cells were stained with Annexin-V-Fluos (Boehringer, Mannheim, Germany). Stained cells were analyzed by flow cytometry, and data were analyzed by use of CellQuest (Becton-Dickinson, Sunnyvale, Calif.). Cell invasion and migration assays were done as described (2).
as §1

H929 cells = assay: Dexamethasone sensitivity of H929 cells co-cultured with HS-5 BMSCs (CAM-DR); type: cell-based, human; conditions: H929 with HS-5 cells 48 h, 200 nM dexamethasone, control cel-miR-67
Description: Reasoning that CD44 is a downstream target of Wnt/β-catenin/BCL9 transcriptional complex, and that miR-30c downregulates expression of CD44 in MM cells (FIG. 3B), and that CD44 is a functional component of cell adhesion-mediated drug resistance (CAM-DR), we investigated the possible role of miR-30s in MM drug resistance in the context of a bone marrow (BM) microenvironment. After ectopic overexpression of miR-30c or miR-30a/b/c/d/e cocktail (miR-30mix) or a negative control (cel-miR-67) in H929 cells, we co-cultured these cells alone or in the presence of HS-5 cells for 48 h and treated them with 200 nM dexamethasone.

[4] = μCT of bone in mice not transplanted with myeloma cells; type: in vivo; conditions: SCID mice not transplanted, 10 days of treatment, versus vehicle
Protocol: Micro-computed topographic (μCT) imaging was performed on the L4-L6 vertebrae of the intact spine of a subset of mice using a high-resolution desktop imaging system (μCT40, Scanco Medical AG, Bruttisellen, Switzerland). Scans were acquired using a 12 μm^3 isotropic voxel size, 70 kVp peak x-ray tube potential, and 200 ms integration time. Cortical and trabecular bone micro architecture was quantified in the 5th lumbar vertebral body in a region beginning 120 μm below the cranial growth plate and ending 120 μm above the caudal growth plate. To assess cortical lesions, we determined the cortical bone volume (Ct.BV) and total volume (Ct.TV) of the ventral face of the vertebral body. Cortical void fraction (%) was calculated as 1−(Ct.BV/Ct.TV)*100 and represents the percent of the ventral face that was void of bone. Trabecular bone volume fraction (Tb.BV/Tb.TV, %) was measured in the region of interest. […]
Micro-computed topographic (μCT) imaging was performed on the L4-L6 vertebrae of the intact spine of a subset of mice using a high-resolution desktop imaging system ([…], Scanco Medical AG, Bruttisellen, Switzerland). […] Cortical and trabecular bone micro architecture was quantified in the 5th lumbar vertebral body in a region beginning 120 μm below the cranial growth plate and ending 120 μm above the caudal growth plate. […]

miR-30c: microRNA, UGUAAACAUCCUACACUCUCAGC (SEQ ID NO: 3 / 29) (listed as RNA, chemistry not given here; listed as Homo sapiens)
expression of BCL9 mRNA (BCL9 [1]): significant reduction
expression of Wnt pathway downstream targets CD44 and Axin2 (BCL9 [1]): reduced expression
BCL9 protein expression (BCL9 [2]): downregulation
expression of BCL9, CD44 and Axin2 (BCL9 [3]): downregulated
MM cell proliferation (CD138+ primary cells): dramatically inhibited
sensitivity to dexamethasone treatment (H929 cells): resensitize
bone osteolytic lesions [4]: No apparent development
